# Entries after “also recorded” stand apart in the source; their conditions may differ.
# Assays:
# [1] = test system: synovial hyperplasia and articular inflammatory cells infiltration in knee joints; assay: Histological assessment (H&E) of knee joints of STA mice; assay type: in vivo, C57BL/6 mice
# Method: (§1) K/BxN serum was collected from K/BxN mice at 8 weeks of age, pooled, aliquoted and stored at -20 °C. K/BxN serum-transfer arthritis (STA) model was induced by intraperitoneal (i.p.) application of 150 μL of serum at day 0. Clinical score for arthritis severity was assessed using a 0–4 point scale for each paw at various time points (0–16 total score) as described previously ([Luo et al., 2011]). 8-week old male C57BL/6 mice were purchased from Dashuo Animal Center (China, Chengdu), maintained at 25°C, and exposed to 12-h light and dark cycles. Mice were fed with standard laboratory chow and water with 1 week of acclimatization. Naive mice were used as the control group. Except the control mice, all mice were i. p. injected with 150 μL of serum, then randomly divided into the following groups and treated with different compounds daily for the consecutive 8 days: 1) STA group; 2) Solvent control group, mice were gavaged with the solvent; 3) Dexamethasone (DEX) group, mice were gavaged with 30 mg/kg DEX; 4) EFL2 group 1, mice were gavaged with 40 mg/kg EFL2; 5) EFL2 group 2, mice were intraperitoneally injected with 15 mg/kg EFL2; 6) EFL2 group 3, […] were intraperitoneally injected with 40 mg/kg EFL2. […] All animal experiments were conducted in accordance with ethical regulation for animal care and use in China.
# The left knee joints were removed on day 13 post STA and fixed in 4% formaldehyde overnight at 4°C. The tissues were decalcified in EDTA and sectioned after embedding in paraffin. 5 μm sections were deparaffinized with xylene, re-hydrated with 100, 95 and 80% ethanol and then stained with hematoxylin and eosin (H&E). Histopathological changes in the knee joints were measured using a semiquantitative scoring system (0–4 scale) to assess synovial hyperplasia and articular inflammatory cells infiltration as previously described ([Yamanishi et al., 2002]).
# [2] = test system: neutrophils, macrophages and inflammatory monocytes in the blood; assay: Flow cytometry of myeloid cells in peripheral blood of STA mice; assay type: in vivo, C57BL/6 mice; settings: EFL2 40 mg/kg i.p.
# Method: K/BxN serum was collected from K/BxN mice at 8 weeks of age, pooled, aliquoted and stored at -20 °C. K/BxN serum-transfer arthritis (STA) model was induced by intraperitoneal (i.p.) application of 150 μL of serum at day 0. Clinical score for arthritis severity was assessed using a 0–4 point scale for each paw at various time points (0–16 total score) as described previously ([Luo et al., 2011]). 8-week old male C57BL/6 mice were purchased from Dashuo Animal Center (China, Chengdu), maintained at 25°C, and exposed to 12-h light and dark cycles. Mice were fed with standard laboratory chow and water with 1 week of acclimatization. Naive mice were used as the control group. […]
# 150 μL peripheral blood and the hind ankles were collected on day 5 and 13 post KBx/N serum transfer, respectively. […] Data were acquired using a BD FACSCalibur flow cytometer (BD Biosciences) and were analyzed by using FlowJo software (Version 7.6.1).
# LPS-induced lung injury = test system: LPS-induced lung injury; set-up: method as in Zhang et al., 2018; settings: mice; ref Zhang et al., 2018; cited from earlier work
# [3] = test system: TLR7-mediated IRAK4/IKKβ/IRF5 signaling pathway; assay: Western blot, IRAK4/IKKβ/IRF5 in R837-stimulated RAW264.7 cells; assay type: cell-based, mouse; settings: R837-stimulated RAW264.7
# Method: RAW264.7 cells (2×10^6 cells/well) were plated into 6-well plates and then incubated at 37°C in 5% CO2 for 24 h. After incubated with various concentrations of EFL2 (1, 5 and 10 µM) for 1 h, cells were then stimulated by R837 (20 μg/ml) for 30 min. Cell lysates were prepared by direct lysis in 20 µL IP buffer (Beyotime Biotechnology, Shanghai, China). After obtaining the whole cell extracts, the cytosolic and nuclear were seperated using Nuclear and Cytoplasmic Protein Extraction Kit (Beyotime Biotechnology, Shanghai, China). BCA Protein Assay Kit (Beyotime Biotechnology, Nantong, China) was applied to determine the protein concentrations. The bands corresponding to p- IKKα/β, IKKα/β, p-IκBα, IκBα, p-p65, p65, p-IRAK4, IRAK4, p-IKKβ, IKKβ, p-IRF5, IRF5, β-actin and Lamin B were visualized using a Western Blot Detection Chemiluminescence Kit (Merck). Protein extracted from the total lysates/cytoplasm and nucleus was quantified in relation to β-actin and Lamin B bands, respectively.
# The antibodies used in the experiments were as follows: rabbit anti-mouse IKKα/β polyclonal antibody (1:1,000, Abways, China), rabbit anti-mouse IκBα polyclonal antibody (1:1,000, Abgent, China), rabbit anti-mouse p65 polyclonal antibody (1:1,000, Abgent, China), rabbit anti-mouse phosphorylated IKKα (Ser176)/β (Ser177) (1:1,000, Abways, China), rabbit anti-mouse phosphorylated IκBα (1:1,000, Abcam, United States), rabbit anti-mouse phosphorylated p65 (1:1,000, Abcam, United States), rabbit anti-mouse IRAK4 polyclonal antibody (1:1,000, Proteintech, United States), rabbit anti-mouse phosphorylated IRAK4 (Thr345/Ser346) (1:1,000, Affinity, United States), rabbit anti-mouse IKKβ polyclonal antibody (1:1,000, Abbkine, United States), rabbit anti-mouse phosphorylated IKKβ (Ser177) (1:1,000, Abways, China), rabbit anti-mouse IRF5 polyclonal antibody (1:1,000, Immunoway, United States), rabbit anti-mouse phosphorylated IRF5 (Ser437) (1:1,000, Affinity, United States), anti-mouse actin monoclonal antibody (1:20,000, Transgen, China) and rabbit anti-mouse LaminB monoclonal antibody (1:5,000, Abways, China).
# [4] = test system: K/BxN serum-transfer arthritis (STA) model; assay: K/BxN serum-transfer arthritis (STA) model, arthritic index / clinical score; assay type: in vivo, C57BL/6 mice; settings: STA mice
# Method: as §1
compound,measurement,setting,value
"C=C1C(OC(=O)c2ccccc2)CC2C(C=C(C)C(=O)C3(OC(C)=O)CC(C)C(OC(=O)c4ccccc4)C3C1OC(C)=O)C2(C)C (centres unmarked) [EFL2, Euphorbia factor L2]",inflammatory cells infiltration and synovium hyperplasia in joints,[1]; EFL2 15 mg/kg i.p.,only partially reduced
same,inflammatory status and inflamed synovium in joints,[1]; EFL2 40 mg/kg i.p.,significantly inhibited
same,expansions of three myeloid cells subsets in the blood,[2],more robust suppressive effect
same,effect on LPS-induced lung injury,LPS-induced lung injury,robust improving effect
same,IRF5 translocation (cytoplasm to nucleus),"[3]; EFL2 at 5 and 10 μM, also immunofluorescence",effectively blocked
same,phosphorylation of IKKβ,"[3]; EFL2 pretreatment 1, 5, 10 μM",significantly suppressed
same,phosphorylation of IRAK4,"[3]; EFL2 pretreatment 1, 5, 10 μM",significantly suppressed
same,phosphorylation of IRF5,"[3]; EFL2 pretreatment 1, 5, 10 μM",significantly suppressed
same,arthritis symptoms (clinical score),"[4]; EFL2 15 mg/kg i.p. daily, particularly acute phase","to a moderate extent, alleviated"
same,joint swelling and redness (clinical score),[4]; EFL2 40 mg/kg i.p. daily,dramatically improved
same,arthritis severity (clinical score),"[4]; EFL2 40 mg/kg oral (gavage) daily, 40 mg/kg",did not affect; also recorded: hardly improved

# — PMC8691750, “Euphorbia Factor L2 ameliorates the Progression of K/BxN Serum-Induced Arthritis by Blocking TLR7 Mediated IRAK4/IKKβ/IRF5 and NF-kB Signaling Pathways” (Frontiers in Pharmacology, 2021)
